Values joined by “and” are separate entries in the source; they are usually repeats but may differ in a detail not shown here. Equal entries are not always repeated.
System: K24384-001-R-PDC complex spheroids, viability
Experiment: Anticancer human tumor K24384-001-R-PDC patient-derived pancreatic adenocarcinoma cell line growth inhibition [GQUAD]
Conditions: for viability, T/C: stronger effect = lower value
Description: DNA G-quadruplex Stabilizer Agents in Combinations in Complex Spheroids
A high-throughput screen of multi-cell type tumor spheroids was designed to identify active combinations of DNA G-quadruplex stabilizer agents and targeted small molecules. Complex spheroids include a stromal component modeled by human endothelial cells (HUVEC) and fibroblasts modeled by human mesenchymal stem cells (MSCs). The concentration ranges selected for each drug and investigational agent were based upon clinically achievable concentrations if the clinical Cmax of the agent was known.
Compounds. The drugs and investigational agents: pidnarulex (CX-5461; NSC782164), APTO-253 (NSC789042), BRACO-19 (NSC847499), peposertib (NSC802822), ceralasertib (NSC780249), elimusertib (NSC800525), camonsertib (NSC841442), AZD-1390 (NSC803789), olaparib (NSC753686), talazoparib (NSC767125), ART-558 (NSC835418), sotorasib (NSC818433), MRTX-1133 (NSC836407), SN-38 (NSC673596), topotecan (NSC609699), etoposide (NSC141540), doxorubicin (NSC123127), gemcitabine (NSC613327), 5-fluorouracil (NSC19893), paclitaxel (NSC125973), vemurafenib (NSC761431), panobinostat (NSC761190), R-306465 (JNJ-16241199; NSC773264), adavosertib (NSC754352), TP-3654 (NSC805149), carboplatin (NSC241240), KSQ-4279 (NSC840948), and staurosporine (NSC755774) were obtained from the National Cancer Institute (NCI) Developmental Therapeutics Program Chemical Repository (34). The FDA-approved anticancer drug set is available from the NCI Developmental Therapeutics Program. […] The stock solutions were prepared in dimethyl sulfoxide (DMSO, Sigma-Aldrich, St. Louis, MO, cat. D2650) at 800-fold the tested concentration and stored at -70 degrees C prior to their use. All drugs and investigational agents were tested over a range starting from a high concentration at or near the clinical Cmax and decreasing in half-log increments. If the clinical Cmax for an agent had not been determined, the highest concentration tested was 10 microM.
2.3 Cell Culture. All cells were maintained in an incubator at 37 degrees C and 5% CO2 with 95% humidity. The PDC lines were cultured according to standard operating procedures established by the NCI PDMR. All PDCs were thawed and cultured in Matrigel-coated flasks prepared with a working solution of 1X Ham's F-12 nutrient mix, without supplementation (Invitrogen, cat. 11765054), 100 U/mL penicillin-streptomycin (Invitrogen, cat. 15140122), and 2.5% Matrigel (Corning Inc., cat. 354248) for the first three passages. The 857933-349-R-J2-PDC line was cultured in 6C/Colon 1B media, which includes advanced DMEM/F-12 (Thermo Fisher Scientific, cat. 12634028), 10 mM HEPES (Thermo Fisher Scientific, cat. 15630080), 1X GlutaMAX supplement (Thermo Fisher Scientific, cat. 35050061), 0.1 mg/mL primocin (InvivoGen, cat. ant-pm-2), 10% defined fetal bovine serum, heat inactivated (HyClone Laboratories Inc., cat. SH30070.03HI), 50% L-WRN conditioned media (ATCC, cat. CRL-3276), 1.25 mM N-Acetyl-L-cysteine (Sigma-Aldrich, cat. A9165), 10 mM nicotinamide (Sigma-Aldrich, cat. N0636), 1X B-27 supplement (Thermo Fisher Scientific, cat. 17504044), 1X N-2 supplement (Thermo Fisher Scientific, cat. 17502048), 10 microM Y-27632 dihydrochloride (Tocris Bioscience, cat. 1254), and 50 ng/mL human EGF recombinant protein (Thermo Fisher Scientific, cat. PHG0311). The 485176-168-R4-J1-PDC line was cultured in Panc media, which includes all 6C/Colon 1B media components plus 100 ng/mL human FGF-10 (Thermo Fisher Scientific, cat. 100-26), 500 nM SB-431542 (Selleckchem, cat. S1067), and gastrin (Tocris, cat. 3006).
[…]
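Also: spheroids exposed to compounds for seven days.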

For `O=c1[nH]cc(F)c(=O)[nH]1`, the viability, T/C (compound 0.0316 µM) was 101% and 113% and 79.9%, the viability, T/C (compound 0.1 µM) was 71.8% and 95.1% and 98.7% and the viability, T/C (compound 0.316 µM) was 89.6% and 94.3% and 82.2%. For the same compound, the viability, T/C (compound 1 µM) was 54.9% and 55.5% and 54.3%, the viability, T/C (compound 3.16 µM) was 41.3% and 45.8% and 44.6% and the viability, T/C (compound 10 µM) was 45.5% and 56.4% and 37.8%. For the same compound, the IC50 (curve of compound) was 1.64 µM and > 10 µM and 1.5 µM.
With `C=CC(=O)N1CCN(c2nc(=O)n(-c3c(C)ccnc3C(C)C)c3nc(-c4c(O)cccc4F)c(F)cc23)C(C)C1` (stereo unspecified) the viability, T/C (compound 0.0316 µM) was 110% and 115% and 96.6%, the viability, T/C (compound 0.1 µM) was 95.3% and 80% and 113% and the viability, T/C (compound 0.316 µM) was 105% and 99.4% and 119%. The viability, T/C (compound 1 µM) was 91.2% and 103% and 99.1%, the viability, T/C (compound 3.16 µM) was 104% and 116% and 106% and the viability, T/C (compound 10 µM) was 93% and 80.7% and 94.2%. For the same compound, the IC50 (curve of compound) was > 10 µM.
In the case of `CC(C)(O)C1CCC(Nc2ccc3ncc(-c4cccc(C(F)(F)F)c4)n3n2)CC1` (stereo unspecified) + CN(C)c1ccc(Nc2c3ccc(NC(=O)CCN4CCCC4)cc3nc3cc(NC(=O)CCN4CCCC4)ccc23)cc1, the IC50 (curve of first compound, second compound 0.0316 µM) is reported as 2.35 µM, the IC50 (curve of first compound, second compound 0.1 µM) is reported as 2.03 µM and the IC50 (curve of first compound, second compound 0.316 µM) is reported as 2.38 µM. For the same compound, the IC50 (curve of first compound, second compound 1 µM) was 2.16 µM, the IC50 (curve of first compound, second compound 3.16 µM) was 1.89 µM and the IC50 (curve of first compound, second compound 10 µM) was 1.24 µM. For the same compound, the viability, T/C (second compound 0.0316 µM, first compound 0.0316 µM) was 106%, the viability, T/C (second compound 0.0316 µM, first compound 0.1 µM) was 106% and the viability, T/C (second compound 0.0316 µM, first compound 0.316 µM) was 102%. For the same compound, the viability, T/C (second compound 0.0316 µM, first compound 1 µM) was 84.6%, the viability, T/C (second compound 0.0316 µM, first compound 3.16 µM) was 37.5% and the viability, T/C (second compound 0.0316 µM, first compound 10 µM) was 37.2%. The viability, T/C (second compound 0.1 µM, first compound 0.0316 µM) was 105%, the viability, T/C (second compound 0.1 µM, first compound 0.1 µM) was 104% and the viability, T/C (second compound 0.1 µM, first compound 0.316 µM) was 96.4%. It also gave a viability, T/C (second compound 0.1 µM, first compound 1 µM) of 79%, a viability, T/C (second compound 0.1 µM, first compound 3.16 µM) of 30.5% and a viability, T/C (second compound 0.1 µM, first compound 10 µM) of 33.4%. It also gave a viability, T/C (second compound 0.316 µM, first compound 0.0316 µM) of 104%, a viability, T/C (second compound 0.316 µM, first compound 0.1 µM) of 98.1% and a viability, T/C (second compound 0.316 µM, first compound 0.316 µM) of 98%. The viability, T/C (second compound 0.316 µM, first compound 1 µM) was 94.6%, the viability, T/C (second compound 0.316 µM, first compound 3.16 µM) was 35.4% and the viability, T/C (second compound 0.316 µM, first compound 10 µM) was 34.3%. For the same compound, the viability, T/C (second compound 1 µM, first compound 0.0316 µM) was 106%, the viability, T/C (second compound 1 µM, first compound 0.1 µM) was 109% and the viability, T/C (second compound 1 µM, first compound 0.316 µM) was 109%. For the same compound, the viability, T/C (second compound 1 µM, first compound 1 µM) was 82%, the viability, T/C (second compound 1 µM, first compound 3.16 µM) was 28.6% and the viability, T/C (second compound 1 µM, first compound 10 µM) was 39.6%. It also gave a viability, T/C (second compound 3.16 µM, first compound 0.0316 µM) of 100%, a viability, T/C (second compound 3.16 µM, first compound 0.1 µM) of 101% and a viability, T/C (second compound 3.16 µM, first compound 0.316 µM) of 107%. For the same compound, the viability, T/C (second compound 3.16 µM, first compound 1 µM) was 77.4%, the viability, T/C (second compound 3.16 µM, first compound 3.16 µM) was 26.2% and the viability, T/C (second compound 3.16 µM, first compound 10 µM) was 29.8%. The viability, T/C (second compound 10 µM, first compound 0.0316 µM) was 94.4%, the viability, T/C (second compound 10 µM, first compound 0.1 µM) was 98% and the viability, T/C (second compound 10 µM, first compound 0.316 µM) was 77.9%. It also gave a viability, T/C (second compound 10 µM, first compound 1 µM) of 61.5%, a viability, T/C (second compound 10 µM, first compound 3.16 µM) of 16.9% and a viability, T/C (second compound 10 µM, first compound 10 µM) of 16.9%.
